Results taken from patent EP4745137A1 (Gluetacs Therapeutics (Shanghai) Co., Ltd., priority 2023, dated 2025).

Columns and labels:
Assay type in all cases: cell-based
Conditions in all cases: 24 hours of compound treatment, 50 nM and 500 nM tested (concentration behind the class not stated)
[1] = target: T1, WEE1 (Homo sapiens, UniProt P30291+Q96SW2); assay: Western-blot assay of substrate protein degradation in hPBMCs, WEE1
T1 construct: endogenous in cells; host or cells: hPBMCs (Milecell Biotechnologies)

[2] = target: T2, IKZF1 (Homo sapiens, UniProt Q13422+Q96SW2); assay: Western-blot assay of substrate protein degradation in hPBMCs, IKZF1
T2 construct: endogenous in cells; host or cells: hPBMCs (Milecell Biotechnologies)

[3] = target: T3, IKZF2 (Homo sapiens, UniProt Q96SW2+Q9UKS7); assay: Western-blot assay of substrate protein degradation in hPBMCs, IKZF2
T3 construct: endogenous in cells; host or cells: hPBMCs (Milecell Biotechnologies)

[4] = target: T4, IKZF3 (Homo sapiens, UniProt Q96SW2+Q9UKT9); assay: Western-blot assay of substrate protein degradation in hPBMCs, IKZF3
T4 construct: endogenous in cells; host or cells: hPBMCs (Milecell Biotechnologies)

[5] = target: T5, CK1α (Homo sapiens, UniProt P48729+Q96SW2); assay: Western-blot assay of substrate protein degradation in hPBMCs, CK1α
T5 construct: endogenous in cells; host or cells: hPBMCs (Milecell Biotechnologies)

[6] = target: T6, GSPT1 (Homo sapiens, UniProt P15170+Q96SW2); assay: Western-blot assay of substrate protein degradation in hPBMCs, GSPT1
T6 construct: endogenous in cells; host or cells: hPBMCs (Milecell Biotechnologies)
T6 sequence (P15170 whole entry): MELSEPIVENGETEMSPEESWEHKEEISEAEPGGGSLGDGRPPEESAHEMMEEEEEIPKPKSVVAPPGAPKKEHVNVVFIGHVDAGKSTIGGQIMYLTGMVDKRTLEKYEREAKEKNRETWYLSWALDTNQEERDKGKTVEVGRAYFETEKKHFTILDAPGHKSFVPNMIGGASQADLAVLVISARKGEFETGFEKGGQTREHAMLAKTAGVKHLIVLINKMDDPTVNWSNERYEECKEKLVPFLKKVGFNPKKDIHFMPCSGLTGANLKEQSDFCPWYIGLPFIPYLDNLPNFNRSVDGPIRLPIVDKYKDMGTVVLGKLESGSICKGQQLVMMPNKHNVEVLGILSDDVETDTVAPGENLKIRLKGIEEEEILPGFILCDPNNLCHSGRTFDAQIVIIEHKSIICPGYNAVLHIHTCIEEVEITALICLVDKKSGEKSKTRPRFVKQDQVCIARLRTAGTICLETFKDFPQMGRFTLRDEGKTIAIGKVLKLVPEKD
T6 sequence (Q96SW2 whole entry): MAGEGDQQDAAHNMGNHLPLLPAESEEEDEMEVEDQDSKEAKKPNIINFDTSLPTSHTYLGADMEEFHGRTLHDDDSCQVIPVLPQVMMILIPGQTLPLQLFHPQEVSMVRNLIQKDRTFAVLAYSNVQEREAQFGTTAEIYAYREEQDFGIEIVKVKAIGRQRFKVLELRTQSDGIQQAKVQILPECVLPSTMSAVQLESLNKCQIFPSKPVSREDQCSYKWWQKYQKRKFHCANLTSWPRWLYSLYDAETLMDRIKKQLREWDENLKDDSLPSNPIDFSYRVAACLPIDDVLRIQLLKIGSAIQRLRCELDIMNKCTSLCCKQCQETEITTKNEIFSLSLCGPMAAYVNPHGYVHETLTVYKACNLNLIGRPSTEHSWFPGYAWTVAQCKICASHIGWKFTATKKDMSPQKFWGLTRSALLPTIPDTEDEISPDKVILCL
T6 sequence (Q16531 whole entry partner): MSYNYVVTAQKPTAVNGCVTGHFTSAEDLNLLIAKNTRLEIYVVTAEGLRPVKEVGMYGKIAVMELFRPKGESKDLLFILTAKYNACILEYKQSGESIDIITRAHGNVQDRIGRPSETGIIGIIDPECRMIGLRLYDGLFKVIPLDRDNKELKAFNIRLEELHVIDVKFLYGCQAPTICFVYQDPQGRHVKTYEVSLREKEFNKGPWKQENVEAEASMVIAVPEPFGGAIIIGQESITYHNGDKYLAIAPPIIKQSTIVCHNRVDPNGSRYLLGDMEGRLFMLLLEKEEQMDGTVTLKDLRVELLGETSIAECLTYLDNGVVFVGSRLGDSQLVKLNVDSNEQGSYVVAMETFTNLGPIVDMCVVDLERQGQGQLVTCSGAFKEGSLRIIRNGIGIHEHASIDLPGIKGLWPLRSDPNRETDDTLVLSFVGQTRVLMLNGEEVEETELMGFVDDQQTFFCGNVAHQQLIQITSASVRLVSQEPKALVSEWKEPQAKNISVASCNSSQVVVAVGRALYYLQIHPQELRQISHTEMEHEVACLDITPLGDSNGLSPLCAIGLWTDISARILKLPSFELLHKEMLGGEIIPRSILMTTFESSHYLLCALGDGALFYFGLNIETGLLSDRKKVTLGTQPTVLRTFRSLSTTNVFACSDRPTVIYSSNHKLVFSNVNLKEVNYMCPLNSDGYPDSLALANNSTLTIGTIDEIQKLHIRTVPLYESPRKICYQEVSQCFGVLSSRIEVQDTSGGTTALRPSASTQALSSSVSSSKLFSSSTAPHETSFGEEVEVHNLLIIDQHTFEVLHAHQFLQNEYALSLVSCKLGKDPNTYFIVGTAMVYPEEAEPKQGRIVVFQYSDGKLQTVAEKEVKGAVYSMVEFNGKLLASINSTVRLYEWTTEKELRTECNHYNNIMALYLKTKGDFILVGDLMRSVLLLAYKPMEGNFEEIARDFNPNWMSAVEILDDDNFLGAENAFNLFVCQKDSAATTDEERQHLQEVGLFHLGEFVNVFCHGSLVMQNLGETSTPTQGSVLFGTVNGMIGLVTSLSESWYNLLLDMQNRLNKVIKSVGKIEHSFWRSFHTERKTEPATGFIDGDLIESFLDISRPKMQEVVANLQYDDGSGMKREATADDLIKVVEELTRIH

T4 sequence (Q9UKT9 whole entry): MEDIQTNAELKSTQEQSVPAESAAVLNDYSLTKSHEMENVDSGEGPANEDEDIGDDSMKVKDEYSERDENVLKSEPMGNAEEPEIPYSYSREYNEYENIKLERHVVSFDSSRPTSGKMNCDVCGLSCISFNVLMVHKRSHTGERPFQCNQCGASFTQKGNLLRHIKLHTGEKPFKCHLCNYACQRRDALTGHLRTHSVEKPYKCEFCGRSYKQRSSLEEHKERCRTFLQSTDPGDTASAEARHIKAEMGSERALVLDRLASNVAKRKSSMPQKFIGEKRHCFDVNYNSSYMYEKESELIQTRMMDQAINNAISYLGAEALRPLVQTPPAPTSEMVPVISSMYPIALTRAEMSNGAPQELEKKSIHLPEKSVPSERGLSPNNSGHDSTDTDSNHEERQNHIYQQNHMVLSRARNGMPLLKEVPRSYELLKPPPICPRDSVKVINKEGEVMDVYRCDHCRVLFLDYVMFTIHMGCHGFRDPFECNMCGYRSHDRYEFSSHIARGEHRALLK
T4 sequence (Q96SW2 whole entry): as the sequence (Q96SW2 whole entry) above
T4 sequence (Q16531 whole entry partner): as the sequence (Q16531 whole entry partner) above
T1 sequence (P30291 whole entry): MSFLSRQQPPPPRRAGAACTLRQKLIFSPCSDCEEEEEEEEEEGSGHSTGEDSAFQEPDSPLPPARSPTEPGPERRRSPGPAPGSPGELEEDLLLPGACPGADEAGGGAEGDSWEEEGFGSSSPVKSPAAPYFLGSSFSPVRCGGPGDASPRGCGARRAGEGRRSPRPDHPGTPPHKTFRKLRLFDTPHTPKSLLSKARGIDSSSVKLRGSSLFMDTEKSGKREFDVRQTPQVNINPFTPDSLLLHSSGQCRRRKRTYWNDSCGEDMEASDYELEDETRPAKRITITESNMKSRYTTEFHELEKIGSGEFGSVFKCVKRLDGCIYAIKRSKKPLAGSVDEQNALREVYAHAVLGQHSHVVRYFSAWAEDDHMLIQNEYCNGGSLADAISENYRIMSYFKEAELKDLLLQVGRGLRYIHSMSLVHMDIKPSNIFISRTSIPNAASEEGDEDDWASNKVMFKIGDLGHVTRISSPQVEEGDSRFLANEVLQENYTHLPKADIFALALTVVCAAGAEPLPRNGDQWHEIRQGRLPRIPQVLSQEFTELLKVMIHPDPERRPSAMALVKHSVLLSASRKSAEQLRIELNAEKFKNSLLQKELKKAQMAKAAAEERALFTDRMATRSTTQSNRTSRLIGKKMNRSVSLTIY
T1 sequence (Q96SW2 whole entry): as the sequence (Q96SW2 whole entry) above
T1 sequence (Q16531 whole entry partner): as the sequence (Q16531 whole entry partner) above
T2 sequence (Q13422 whole entry): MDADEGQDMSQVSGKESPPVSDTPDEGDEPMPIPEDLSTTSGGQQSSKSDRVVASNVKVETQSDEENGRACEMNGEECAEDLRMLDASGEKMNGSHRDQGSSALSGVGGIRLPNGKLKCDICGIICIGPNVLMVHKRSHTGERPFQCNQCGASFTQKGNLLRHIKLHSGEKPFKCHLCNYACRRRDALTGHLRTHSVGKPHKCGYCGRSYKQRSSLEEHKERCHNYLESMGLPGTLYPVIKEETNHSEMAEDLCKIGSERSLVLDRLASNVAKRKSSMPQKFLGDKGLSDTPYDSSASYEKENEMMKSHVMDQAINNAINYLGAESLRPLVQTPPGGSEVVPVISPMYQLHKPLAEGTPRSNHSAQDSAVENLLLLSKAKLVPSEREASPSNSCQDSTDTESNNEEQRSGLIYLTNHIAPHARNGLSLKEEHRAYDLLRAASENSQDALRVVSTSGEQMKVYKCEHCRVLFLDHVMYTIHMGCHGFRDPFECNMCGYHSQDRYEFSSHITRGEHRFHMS
T2 sequence (Q96SW2 whole entry): as the sequence (Q96SW2 whole entry) above
T2 sequence (Q16531 whole entry partner): as the sequence (Q16531 whole entry partner) above
T5 sequence (P48729 whole entry): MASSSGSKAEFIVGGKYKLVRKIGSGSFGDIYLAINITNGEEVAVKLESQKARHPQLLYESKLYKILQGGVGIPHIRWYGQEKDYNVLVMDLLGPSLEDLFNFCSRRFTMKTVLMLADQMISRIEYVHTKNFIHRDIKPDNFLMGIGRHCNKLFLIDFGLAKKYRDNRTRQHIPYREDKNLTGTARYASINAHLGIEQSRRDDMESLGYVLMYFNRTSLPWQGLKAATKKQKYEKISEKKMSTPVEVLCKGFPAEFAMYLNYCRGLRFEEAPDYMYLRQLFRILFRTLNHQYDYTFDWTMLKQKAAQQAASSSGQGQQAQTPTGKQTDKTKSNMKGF
T5 sequence (Q96SW2 whole entry): as the sequence (Q96SW2 whole entry) above
T5 sequence (Q16531 whole entry partner): as the sequence (Q16531 whole entry partner) above

| Compound | Weel substrate protein remaining % [1] | IKZF 1 substrate protein remaining % [2] | IKZF2 substrate protein remaining % [3] | IKZF3 substrate protein remaining % [4] | CK1a substrate protein remaining % [5] | GSPT1 substrate protein remaining % [6] |
| --- | --- | --- | --- | --- | --- | --- |
| O=C1CCC(N2C(=O)c3ccc(CN4CCN(c5ccc(C(F)(F)F)cc5)CC4)cc3C2=O)C(=O)N1 (stereo not drawn) [GT-06290, 2-(2,6-dioxopiperidin-3-yl)-5-((4-(4-(trifluoromethyl)phenyl)piperazin-1-yl)methyl)isoindoline-1,3-dione] | B (80%< substrate protein remaining %≤ 100%) | B (80%< substrate protein remaining %≤ 100%) | B (80%< substrate protein remaining %≤ 100%) | B (80%< substrate protein remaining %≤ 100%) | B (80%< substrate protein remaining %≤ 100%) | A (0% ≤ substrate protein remaining % ≤ 80%) |
| O=C1CCC(N2C(=O)c3ccc(CN4CCC(c5cccc(Cl)c5Cl)CC4)cc3C2=O)C(=O)N1 (stereo not drawn) [GT-06358, 5-((4-(2,3-dichlorophenyl)piperidin-1-yl)methyl)-2-(2,6-dioxopiperidin-3-yl)isoindoline-1,3-dione] | A (0% ≤ substrate protein remaining % ≤ 80%) | A (0% ≤ substrate protein remaining % ≤ 80%) | A (0% ≤ substrate protein remaining % ≤ 80%) | B (80%< substrate protein remaining %≤ 100%) | B (80%< substrate protein remaining %≤ 100%) | A (0% ≤ substrate protein remaining % ≤ 80%) |
| O=C1CCC(N2C(=O)c3ccc(CN4CCN(c5c(Cl)ccnc5Cl)CC4)cc3C2=O)C(=O)N1 (stereo not drawn) [GT-06552, 5-((4-(2,4-dichloropyridin-3-yl)piperazin-1-yl)methyl)-2-(2,6-dioxopiperidin-3-yl)isoindoline-1,3-dione] | B (80%< substrate protein remaining %≤ 100%) | B (80%< substrate protein remaining %≤ 100%) | A (0% ≤ substrate protein remaining % ≤ 80%) | B (80%< substrate protein remaining %≤ 100%) | B (80%< substrate protein remaining %≤ 100%) | A (0% ≤ substrate protein remaining % ≤ 80%) |
| Cc1cc2c(N3CCN(Cc4ccc5c(c4)C(=O)N(C4CCC(=O)NC4=O)C5=O)CC3)ncnc2s1 (stereo not drawn) [GT-06305, 2-(2,6-dioxopiperidin-3-yl)-5-((4-(6-methylthieno[2,3-d]pyrimidin-4-yl)piperazin-1-yl)methyl)isoindoline-1,3-dione] | B (80%< substrate protein remaining %≤ 100%) | B (80%< substrate protein remaining %≤ 100%) | B (80%< substrate protein remaining %≤ 100%) | B (80%< substrate protein remaining %≤ 100%) | A (0% ≤ substrate protein remaining % ≤ 80%) | B (80%< substrate protein remaining %≤ 100%) |
| O=C1CCC(N2C(=O)c3ccc(CN4CCc5sccc5C4)cc3C2=O)C(=O)N1 (stereo not drawn) [GT-06762, 5-((6,7-dihydrothieno[3,2-c]pyridin-5(4H)-yl)methyl)-2-(2,6-dioxopiperidin-3-yl)isoindoline-1,3-dione] | A (0% ≤ substrate protein remaining % ≤ 80%) | A (0% ≤ substrate protein remaining % ≤ 80%) | B (80%< substrate protein remaining %≤ 100%) | B (80%< substrate protein remaining %≤ 100%) | A (0% ≤ substrate protein remaining % ≤ 80%) | B (80%< substrate protein remaining %≤ 100%) |
